{"source": "patent US8404651B2", "about": "“Compositions and methods for treating viral infections” (priority 2008, dated 2013)", "key": {"[1]": {"assay": "MTT cytotoxicity assay, MDBK", "format": "cell-based", "settings": "cattle, MDBK cells, 24-hour incubation", "description": "Cellular cytotoxicity profile of the compounds was carried out against a panel of cell lines. Standard MTT assays were performed in 96-well plates using the Promega CellTiter96 Non-radioactive Cell Proliferation Assay Kit in conjunction with a 96-well Plate Reader (ThermoMax, Molecular devices), and MDBK, Vero, and HFF cell lines (obtained from ATCC). Several controls were employed including the nucleoside analogs 3TC, AZT, and ddC, as well as, media without drugs. SDS was used as a positive cytotoxic control. The compounds were tested in triplicate at concentrations of 100, 300, and 1000 μM. Following a 24-hour incubation of cells with the test substance, the MTT assay was carried out."}, "[2]": {"test_system": "replicon cell line containing H/FL-Neo (genotype 1a (H77), full length construct)", "assay": "Secondary anti-HCV assay: genotype 1a replicon, format of the primary assay", "format": "cell-based", "settings": "Hepatitis C virus", "excerpt": "Res. 19:55; Okuse, et al., 2005, Antivir. Res. 65:23).\nSecondary anti-HCV assay—This assay assesses activity against different HCV genotypes using the format described for the primary assay. Activity against the genotype 1b HCV is included for comparison. Currently available is a replicon cell line containing H/FL-Neo (genotype 1a (H77), full length construct) (Blight, et al., 2003, J. Virol. 77:3181)."}, "TA98": {"test_system": "TA98", "assay": "In vitro bacterial mutagenicity assay (pre-incubation), strain TA98", "settings": "for Number of revertants x1, x2, x3: individual plates", "description": "Dispense 100 microliter aliquots of the appropriate bacterial cultures into sample tubes stored on ice. Dispense aliquots of the vehicle, positive controls or dose formulations into the appropriate sample tubes. 2 mL top Agar and HBT cap was added to the sample tube, inverted three times and poured into MG plate. The lid was replaced on the plate and left on a level surface to let the agar harden. The plates were incubated in an incubator for 48 to 72 h. The background lawn and count the number of revertants was checked for each plate."}, "[3]": {"assay": "14 day tolerability study in uPA SCID (KMT) mouse", "format": "in vivo", "settings": "for tolerability: 300 mg/kg once a day by oral gavage for 14 days, KMT mice", "description": "Two separate groups of animals were treated with vehicle control or with a daily drug dose of 300 mg/kg for 14 days. Blood samples were taken 15 minutes after the drug doses on Day 1 (first dose), Day 7 and Day 14 (last dose) for measurement of the concentration of the drug in the serum of study animals. Body weights and health index scores were monitored daily in order to assess tolerance of the study animals to the dosing procedure and the drug. […] The solution was used to dose animals in a volume of 7.5 ml/kg. The citric acid buffer was also used for dosing of the vehicle control animals.\nTen KMT transgenic animals with low engraftment of human liver cells (hAAT values less than 20 at 6 weeks) were allocated to this study. Individual body weights of animals were recorded prior to treatment and daily during the study. Animals were also evaluated once a day (at morning dose administration) for clinical signs and monitored for morbidity and mortality. The study animals were allocated into 2 groups of 5 animals. Compound 2 or citric acid vehicle control were administered once a day by oral gavage employing a sterile syringe and feeding needle for each animal. Dosing volume was 7.5 mL/kg (150 μL/20 grams body weight) for all groups. The volume was adjusted based on the daily body weight of each individual animal. […] The study started on Day 1 with the first drug dose administered in the morning and continued up to Day 14, the last day of drug treatment. Blood was collected via the central tail artery from all animals of each group on Day 1, fifteen minutes after the first drug dose, on Day 7, fifteen minutes after the drug dose, and on Day 14, fifteen minutes after the last drug dose. The blood samples were allowed to clot and the serum removed from above the clot pellet. Serum samples were stored at −80° C. prior to shipment to the study client. […]\nIndividual body weights of the animals were recorded prior to treatment and daily during the course of the study. The animals were also evaluated daily for clinical signs and monitored for morbidity and mortality. […]"}, "[4]": {"test_system": "HCV replicon cell line, AVA5", "assay": "Cytotoxicity by neutral red dye uptake in replicon cultures in parallel plates", "settings": "Table 5, Compound 2 alone or in combination, genotype 1B", "description": "(§1) Primary anti-HCV assay-Antiviral activity against HCV was assessed in a 3-day assay (Okuse, et al., 2005; Antiviral. Res. 65:23; Korba, et al., 2008, Antiviral Res. 77:56) using the stably-expressing HCV replicon cell line, AVA5 [sub-genomic (CON1), genotype 1b](Blight, et al., 2000, Science 290:1972) maintained as sub-confluent cultures on 96-well plates. Antiviral activity was determined by blot hybridization analysis of intracellular HCV RNA (normalized to the level of cellular B-actin RNA in each culture sample). Cytotoxicity was assessed by neutral red dye uptake in cultures maintained in parallel plates.\n(§2) EC50, EC90, and CC50 values were calculated by linear regression analysis (MS EXCEL®, QUATTROPRO®) using data combined from all treated cultures Korba & Gerin, 1992, Antivir. Res. 19:55; Okuse, et al., 2005, Antivir. Res. 65:23). Standard deviations for EC50 and EC90 values were calculated from the standard errors generated by the regression analyses. […] The Selectivity index (S.I.) was calculated as CC50/EC50. Recombinant human interferon 2b (PBL laboratories, Inc.) was used as an assay control.\n(§3) For each combination of agents, three concentration ratios, centered on the use of the compounds at equipotent antiviral concentrations, were used. A dilution series (six three-fold-concentration steps, beginning at the approximate EC90) was then generated with the concentration ratio of the two agents remaining the same in each dilution step. Toxicity analysis was performed as described above for the monotherapies. Analysis of drug interactions in the combination studies was determined by the use of the […] program (Biosoft, Inc., Cambridge, United Kingdom). This program evaluates synergy, additivity, or antagonism by use of several methodologies, including that of Chou and Talalay with a statistical analysis employing the Monte Carlo technique to provide confidence limits, fraction-affected-confidence interval (FA-CI) plots, isobolograms, and median-effect plots. (Belenkii, M. S. Schinazi, R. A method for the analysis of combination therapies with statistical analysis. Antiviral Res. 25, 11, 2005)."}, "[5]": {"assay": "Cytotoxicity by neutral red dye uptake in replicon cultures in parallel plates", "settings": "human", "description": "as §1, §2, §3"}, "[6]": {"settings": "TA98, absence of S9, 50 μg/plate"}, "[7]": {"settings": "TA98, absence of S9, 158 μg/plate"}, "[8]": {"settings": "TA98, absence of S9, 500 μg/plate"}, "[9]": {"settings": "TA98, absence of S9, 1581 μg/plate"}, "[10]": {"settings": "TA98, absence of S9, 5000 μg/plate"}, "[11]": {"settings": "TA98, presence of S9, 50 μg/plate"}, "[12]": {"settings": "TA98, presence of S9, 158 μg/plate"}, "[13]": {"settings": "TA98, presence of S9, 500 μg/plate"}, "[14]": {"settings": "TA98, presence of S9, 1581 μg/plate"}, "[15]": {"settings": "TA98, presence of S9, 5000 μg/plate"}}, "note": "Where “and” joins values, the source holds several entries; their conditions need not be identical. Equal entries are not always repeated.", "data": [{"smiles": "COC1C(OP(=O)(OC[C@H]2O[C@@H](n3cnc4c(N)ncnc43)CC2O)SCOC(=O)OC(C)C)[C@@H](CO)O[C@H]1n1ccc(=O)[nH]c1=O", "note": "(stereo partly shown) [Compound 2, S-isopropylcarbonyloxymethyl thiophosphate (6k) of 3′dApsU2′OMe]", "values": [{"measurement": "CC50 at 24 h", "setting": "[1]", "result": "> 1", "unit": "mM"}, {"measurement": "EC50", "setting": "[2]; read-out: EC50 HCV Type 1A", "result": 2200, "unit": "nM"}, {"measurement": "EC90", "setting": "[2]; read-out: EC90 HCV type 1A", "result": 8, "unit": "µM"}, {"measurement": "Number of revertants mean", "setting": "TA98; [6]", "result": 22}, {"measurement": "Number of revertants x1, x2, x3", "setting": "TA98; [6]", "result": "18 and 15 and 33"}, {"measurement": "Number of revertants mean", "setting": "TA98; [7]", "result": 27}, {"measurement": "Number of revertants x1, x2, x3", "setting": "TA98; [7]", "result": "28 (2×) and 25"}, {"measurement": "Number of revertants mean", "setting": "TA98; [8]", "result": 24}, {"measurement": "Number of revertants x1, x2, x3", "setting": "TA98; [8]", "result": "21 and 20 and 31"}, {"measurement": "Number of revertants mean", "setting": "TA98; [9]", "result": 25}, {"measurement": "Number of revertants x1, x2, x3", "setting": "TA98; [9]", "result": "24 and 18 and 33"}, {"measurement": "Number of revertants mean", "setting": "TA98; [10]", "result": 24}, {"measurement": "Number of revertants x1, x2, x3", "setting": "TA98; [10]", "result": "27 and 26 and 20"}, {"measurement": "Number of revertants mean", "setting": "TA98; [11]", "result": 45}, {"measurement": "Number of revertants x1, x2, x3", "setting": "TA98; [11]", "result": "43 and 39 and 53"}, {"measurement": "Number of revertants mean", "setting": "TA98; [12]", "result": 40}, {"measurement": "Number of revertants x1, x2, x3", "setting": "TA98; [12]", "result": "37 and 48 and 34"}, {"measurement": "Number of revertants mean", "setting": "TA98; [13]", "result": 39}, {"measurement": "Number of revertants x1, x2, x3", "setting": "TA98; [13]", "result": "31 and 40 and 46"}, {"measurement": "Number of revertants mean", "setting": "TA98; [14]", "result": 45}, {"measurement": "Number of revertants x1, x2, x3", "setting": "TA98; [14]", "result": "44 (2×) and 46"}, {"measurement": "Number of revertants mean", "setting": "TA98; [15]", "result": 44}, {"measurement": "Number of revertants x1, x2, x3", "setting": "TA98; [15]", "result": "53 and 36 and 43"}, {"measurement": "body weight change", "setting": "[3]; 300 mg/kg daily, Day 1 to Day 14, one animal in the drug group (F187)", "result": "small decrease in body weight"}, {"measurement": "tolerability", "setting": "[3]", "result": "generally well tolerated"}, {"measurement": "tolerability", "setting": "[3]; listed as drug", "result": "well tolerated"}, {"measurement": "CC50", "setting": "[4]", "result": "> 100", "unit": "µM"}, {"measurement": "CC50 at 3 day", "setting": "[5]", "result": "> 100", "unit": "µM"}]}]}
